{"source": "patent US12544370B2", "about": "“Methods for cancer therapy” (ASCENTAGE PHARMA (SUZHOU) CO., LTD., priority 2018, dated 2026)", "system": "TKI-resistant patients with chronic phase (CP) or accelerated phase (AP) CML", "test": "Phase I study, safety / treatment related adverse events (Example 1)", "conditions": "Example 1", "text": "The eligible patients received treatments until disease progression or intolerable toxicities. The primary efficacy endpoint in the CML AP and CP patients, was complete hematological response (CHR) and major cytogenetic response (MCyR) respectively, MCyR includes partial cytogenetic response (PCyR) and complete cytogenetic response (CCyR). Blood samples were collected at various time points on Day 1-2 and Day 27-28 during cycle 1 for PK analyses.\n• 3 to 6 subjects in each dose group (traditional 3+3 dose increasing method) • Up to 15 subjects in the MTD dose group (safety and PK characteristics) • Dose extension studies: • Up to 60 subjects (CP/CML-AP) • Extended dose selection is based on initial safety and efficacy Study Endpoints Primary Endpoint", "key": {"[1]": {"conditions": "treatment related AE, all patients"}}}
{"compound": "Cc1ccc(C(=O)Nc2ccc(CN3CCN(C)CC3)c(C(F)(F)F)c2)cc1C#Cc1cnc2[nH]ncc2c1", "note": "[compound of formula (I-A), 3-(2-(1H-pyrazolo[3,4-b]pyridin-5-yl)ethynyl)-4-methyl-N-(4-((4-methylpiperazin-1-yl)methyl)-3-(trifluoromethyl)phenyl)-benzamide]", "values": [{"measurement": "Lipase increased leading to dose interruption/reduction, percent of cohort", "setting": "40 mg (n = 37)", "value": "(2.7%)"}, {"measurement": "Thrombocytopenia leading to dose interruption/reduction", "setting": "40 mg (n = 37)", "value": 11, "unit": "n"}, {"measurement": "Thrombocytopenia leading to dose interruption/reduction, percent of cohort", "setting": "40 mg (n = 37)", "value": "(30%)"}, {"measurement": "ALT increased leading to dose interruption/reduction", "setting": "45 mg (n = 3)", "value": "0 n (%)"}, {"measurement": "AST increased leading to dose interruption/reduction", "setting": "45 mg (n = 3)", "value": "0 n (%)"}, {"measurement": "Amylase increased leading to dose interruption/reduction", "setting": "45 mg (n = 3)", "value": "0 n (%)"}, {"measurement": "Anemia leading to dose interruption/reduction", "setting": "45 mg (n = 3)", "value": "0 n (%)"}, {"measurement": "Atrial fibrillation leading to dose interruption/reduction", "setting": "45 mg (n = 3)", "value": "0 n (%)"}, {"measurement": "Cardiomyopathy leading to dose interruption/reduction", "setting": "45 mg (n = 3)", "value": "0 n (%)"}, {"measurement": "GGT increased leading to dose interruption/reduction", "setting": "45 mg (n = 3)", "value": "0 n (%)"}, {"measurement": "Hyperkalemia leading to dose interruption/reduction", "setting": "45 mg (n = 3)", "value": "0 n (%)"}, {"measurement": "Hypertriglyceridemia leading to dose interruption/reduction", "setting": "45 mg (n = 3)", "value": "0 n (%)"}, {"measurement": "Hypocalcemia leading to dose interruption/reduction", "setting": "45 mg (n = 3)", "value": "0 n (%)"}, {"measurement": "Lacunar infarction leading to dose interruption/reduction", "setting": "45 mg (n = 3)", "value": "0 n (%)"}, {"measurement": "Lipase increased leading to dose interruption/reduction", "setting": "45 mg (n = 3)", "value": "0 n (%)"}, {"measurement": "Thrombocytopenia leading to dose interruption/reduction", "setting": "45 mg (n = 3)", "value": "2(67%) n (%)"}, {"measurement": "ALT increased leading to dose interruption/reduction", "setting": "50 mg (n = 24)", "value": 1, "unit": "n"}, {"measurement": "ALT increased leading to dose interruption/reduction, percent of cohort", "setting": "50 mg (n = 24)", "value": "(4.2%)"}, {"measurement": "AST increased leading to dose interruption/reduction", "setting": "50 mg (n = 24)", "value": 1, "unit": "n"}, {"measurement": "AST increased leading to dose interruption/reduction, percent of cohort", "setting": "50 mg (n = 24)", "value": "(4.2%)"}, {"measurement": "Amylase increased leading to dose interruption/reduction", "setting": "50 mg (n = 24)", "value": "0 n (%)"}, {"measurement": "Anemia leading to dose interruption/reduction", "setting": "50 mg (n = 24)", "value": "0 n (%)"}, {"measurement": "Atrial fibrillation leading to dose interruption/reduction", "setting": "50 mg (n = 24)", "value": "0 n (%)"}, {"measurement": "Cardiomyopathy leading to dose interruption/reduction", "setting": "50 mg (n = 24)", "value": "0 n (%)"}, {"measurement": "GGT increased leading to dose interruption/reduction", "setting": "50 mg (n = 24)", "value": "0 n (%)"}, {"measurement": "Hyperkalemia leading to dose interruption/reduction", "setting": "50 mg (n = 24)", "value": "0 n (%)"}, {"measurement": "Hypertriglyceridemia leading to dose interruption/reduction", "setting": "50 mg (n = 24)", "value": "0 n (%)"}, {"measurement": "Hypocalcemia leading to dose interruption/reduction", "setting": "50 mg (n = 24)", "value": 1, "unit": "n"}, {"measurement": "Hypocalcemia leading to dose interruption/reduction, percent of cohort", "setting": "50 mg (n = 24)", "value": "(4.2%)"}, {"measurement": "Lacunar infarction leading to dose interruption/reduction", "setting": "50 mg (n = 24)", "value": 1, "unit": "n"}, {"measurement": "Lacunar infarction leading to dose interruption/reduction, percent of cohort", "setting": "50 mg (n = 24)", "value": "(4.2%)"}, {"measurement": "Lipase increased leading to dose interruption/reduction", "setting": "50 mg (n = 24)", "value": 1, "unit": "n"}, {"measurement": "Lipase increased leading to dose interruption/reduction, percent of cohort", "setting": "50 mg (n = 24)", "value": "(4.2%)"}, {"measurement": "Thrombocytopenia leading to dose interruption/reduction", "setting": "50 mg (n = 24)", "value": 8, "unit": "n"}, {"measurement": "Thrombocytopenia leading to dose interruption/reduction, percent of cohort", "setting": "50 mg (n = 24)", "value": "(33%)"}, {"measurement": "ALT increased leading to dose interruption/reduction", "setting": "60 mg (n = 3)", "value": "0 n (%)"}, {"measurement": "AST increased leading to dose interruption/reduction", "setting": "60 mg (n = 3)", "value": "0 n (%)"}, {"measurement": "Amylase increased leading to dose interruption/reduction", "setting": "60 mg (n = 3)", "value": "0 n (%)"}, {"measurement": "Anemia leading to dose interruption/reduction", "setting": "60 mg (n = 3)", "value": "0 n (%)"}, {"measurement": "Atrial fibrillation leading to dose interruption/reduction", "setting": "60 mg (n = 3)", "value": "0 n (%)"}, {"measurement": "Cardiomyopathy leading to dose interruption/reduction", "setting": "60 mg (n = 3)", "value": "1(33%) n (%)"}, {"measurement": "GGT increased leading to dose interruption/reduction", "setting": "60 mg (n = 3)", "value": "0 n (%)"}, {"measurement": "Hyperkalemia leading to dose interruption/reduction", "setting": "60 mg (n = 3)", "value": "0 n (%)"}, {"measurement": "Hypertriglyceridemia leading to dose interruption/reduction", "setting": "60 mg (n = 3)", "value": "0 n (%)"}, {"measurement": "Hypocalcemia leading to dose interruption/reduction", "setting": "60 mg (n = 3)", "value": "0 n (%)"}, {"measurement": "Lacunar infarction leading to dose interruption/reduction", "setting": "60 mg (n = 3)", "value": "0 n (%)"}, {"measurement": "Lipase increased leading to dose interruption/reduction", "setting": "60 mg (n = 3)", "value": "0 n (%)"}, {"measurement": "Thrombocytopenia leading to dose interruption/reduction", "setting": "60 mg (n = 3)", "value": "2(67%) n (%)"}, {"measurement": "patients with dose-limiting toxicity (DLT)", "setting": "60 mg cohort", "value": "Two out of 3"}, {"measurement": "patient withdrawal from the study because of TRAEs", "setting": "70 patients", "value": "no patient withdrawal"}, {"measurement": "maximum toxic dosage (MTD)", "setting": "QOD", "value": 50, "unit": "mg"}, {"measurement": "tolerability", "setting": "median follow-up of 4.1 (1.0-21.2) cycles", "value": "well-tolerated in all dose cohorts other than the 60 mg cohort"}, {"measurement": "Alanine aminotransferase increased, Any grade", "setting": "[1]", "value": "29 (29%) n (%)"}, {"measurement": "Alanine aminotransferase increased, Grade 3-4", "setting": "[1]", "value": "2 (2.0%) n (%)"}, {"measurement": "Alanine aminotransferase increased, SAE", "setting": "[1]", "value": "0 n (%)"}, {"measurement": "Anaemia, Any grade", "setting": "[1]", "value": "10 (10%) n (%)"}, {"measurement": "Anaemia, Grade 3-4", "setting": "[1]", "value": "9 (9.0%) n (%)"}, {"measurement": "Anaemia, SAE", "setting": "[1]", "value": "2 (2.0%) n (%)"}, {"measurement": "Aspartate aminotransferase inceased, Any grade", "setting": "[1]", "value": "31 (31%) n (%)"}, {"measurement": "Aspartate aminotransferase inceased, Grade 3-4", "setting": "[1]", "value": "2 (2.0%) n (%)"}, {"measurement": "Aspartate aminotransferase inceased, SAE", "setting": "[1]", "value": "0 n (%)"}, {"measurement": "Blood bilirubin increased, Any grade", "setting": "[1]", "value": "28 (28%) n (%)"}, {"measurement": "Blood bilirubin increased, Grade 3-4", "setting": "[1]", "value": "1 (1.0%) n (%)"}, {"measurement": "Blood bilirubin increased, SAE", "setting": "[1]", "value": "0 n (%)"}, {"measurement": "Blood creatine phosphokinase increased, Any grade", "setting": "[1]", "value": "19 (19%) n (%)"}, {"measurement": "Blood creatine phosphokinase increased, Grade 3-4", "setting": "[1]", "value": "1 (1.0%) n (%)"}, {"measurement": "Blood creatine phosphokinase increased, SAE", "setting": "[1]", "value": "0 n (%)"}, {"measurement": "Hypertriglyceridaemia, Any grade", "setting": "[1]", "value": "51 (51%) n (%)"}, {"measurement": "Hypertriglyceridaemia, Grade 3-4", "setting": "[1]", "value": "4 (4.0%) n (%)"}, {"measurement": "Hypertriglyceridaemia, SAE", "setting": "[1]", "value": "0 n (%)"}, {"measurement": "Hypocalcaemia, Any grade", "setting": "[1]", "value": "31 (31%) n (%)"}, {"measurement": "Hypocalcaemia, Grade 3-4", "setting": "[1]", "value": "0 n (%)"}, {"measurement": "Hypocalcaemia, SAE", "setting": "[1]", "value": "0 n (%)"}, {"measurement": "Leukopenia, Any grade", "setting": "[1]", "value": "17 (17%) n (%)"}, {"measurement": "Leukopenia, Grade 3-4", "setting": "[1]", "value": "15 (15%) n (%)"}, {"measurement": "Neutropenia, Any grade", "setting": "[1]", "value": "2 (2.0%) n (%)"}, {"measurement": "Neutropenia, Grade 3-4", "setting": "[1]", "value": "0 n (%)"}, {"measurement": "Neutropenia, SAE", "setting": "[1]", "value": "0 n (%)"}, {"measurement": "Proteinuria, Any grade", "setting": "[1]", "value": "11 (11%) n (%)"}, {"measurement": "Proteinuria, Grade 3-4", "setting": "[1]", "value": "1 (1.0%) n (%)"}, {"measurement": "Proteinuria, SAE", "setting": "[1]", "value": "0 n (%)"}, {"measurement": "Skin hyperpigmentation, Any grade", "setting": "[1]", "value": "35 (35%) n (%)"}, {"measurement": "Skin hyperpigmentation, Grade 3-4", "setting": "[1]", "value": "0 n (%)"}, {"measurement": "Skin hyperpigmentation, SAE", "setting": "[1]", "value": "0 n (%)"}, {"measurement": "Thrombocytopenia, Any grade", "setting": "[1]", "value": "46 (46%) n (%)"}, {"measurement": "Thrombocytopenia, Grade 3-4", "setting": "[1]", "value": "45 (45%) n (%)"}, {"measurement": "Thrombocytopenia, SAE", "setting": "[1]", "value": "5 (5.0%) n (%)"}, {"measurement": "leukocytosis, Any grade", "setting": "[1]", "value": "9 (9.0%) n (%)"}, {"measurement": "leukocytosis, Grade 3-4", "setting": "[1]", "value": "8 (8.0%) n (%)"}, {"measurement": "leukocytosis, SAE", "setting": "[1]", "value": "0 n (%)"}, {"measurement": "leukopenia, SAE", "setting": "[1]", "value": "0 n (%)"}]}
